Results as given in patent US20110111407A1, “METHOD FOR ANALYSING THE EPIGENETIC STATUS OF THE HTRA 1 GENE IN A BIOLOGICAL SAMPLE” (priority 2008, published 2011).
Read-outs that look alike come from different tables or passages of the source.

Columns and labels:
[1] = test system: HtrA1 expression in HCT116 and SW480 cells; experiment: HtrA1 expression by quantitative real-time PCR after 5-Aza-dC and TSA treatment; format: cell-based, human; details: HCT116 and SW480 cancer cells treated with 5-Aza-dC (5 μM and 10 μM, 56 h) then 400 nM TSA (16 h) vs solvent only
Experimental: Expression of HtrA1 in HCT116 and SW480 cells treated with 5-Aza-dC and TSA. Cells were treated with 5-Aza-dC and TSA or solvent only. RNA was extracted from the cells followed by reverse transcription. cDNA was analyzed by quantitative real-time PCR.
Cells were seeded at a density of 5×10^5/60 mm dish and allowed to attach over 24 h in a 37° C. incubator in a humified atmosphere with 5% CO2. 5-aza-2′-deoxycytidine was solved in 50% acetic acid. It was added to the medium for a final concentration ranging from 0 to 10 μM for 72 h. At every 24 h interval, fresh medium containing the drug was added. Cells were incubated in a 37° C. incubator in a humified atmosphere with 5% CO2. […]
At the end of the treatment cells were washed twice with PBS and RNA was isolated for analysis of HtrA1 expression using quantitative Real-Time-PCR. […]
Quantitative Real-Time PCR was performed on the RotorGene3000 (Corbett Life Science) using Absolute QPCR SYBR Green Mix (ABgene) according to the manufacturer's instructions. 1 μl of cDNA, 12.5 μl Absolute QPCR SYBR Green Mix and 400 nM of each primer were used for the quantitative real-time PCR reaction. […]
The relative gene expression level of HtrA1 was calculated relative to the GAPDH and PPIA genes according to the method of Pfaffl (Pfaffl Nucleic Acids Res 29:e45 (2001)).

cells = details: cited from earlier work
HtrA1 [2] = molecular target: HtrA1 (Homo sapiens, UniProt Q92743); experiment: HtrA1 enzymatic activity with p-NA substrate; format: biochemical; details: 25 μM Cytochalasin E, preincubated 10 minutes at 37° C., 0.5 mM p-NA substrate, measured 70 minutes at 405 nm
Chain of HtrA1 (Homo sapiens, UniProt Q92743) (Q92743 23-480): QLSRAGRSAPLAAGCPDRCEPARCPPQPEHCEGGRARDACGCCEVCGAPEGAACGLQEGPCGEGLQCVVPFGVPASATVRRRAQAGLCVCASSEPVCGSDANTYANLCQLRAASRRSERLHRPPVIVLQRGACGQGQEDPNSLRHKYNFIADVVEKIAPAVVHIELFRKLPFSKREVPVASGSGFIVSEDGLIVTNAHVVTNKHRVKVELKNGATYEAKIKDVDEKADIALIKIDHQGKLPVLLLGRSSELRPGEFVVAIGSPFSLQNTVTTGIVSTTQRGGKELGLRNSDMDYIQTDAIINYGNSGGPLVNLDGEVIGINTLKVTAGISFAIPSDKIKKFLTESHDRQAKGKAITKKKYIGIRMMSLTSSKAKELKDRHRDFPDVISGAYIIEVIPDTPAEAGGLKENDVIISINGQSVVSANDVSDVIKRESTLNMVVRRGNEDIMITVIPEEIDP
Experimental: HtrA1 activity was determined with a p-NA substrate. HtrA1 was incubated with either DMSO alone or 25 μM Cytochalasin E that was dissolved in DMSO. Reaction was measured spectrophometrically for 70 minutes at 37° C. at 405 nm.
Enzymatic activity of HtrA1 was assayed using acyl p-nitroanilide (p-NA) substrate FANQHLCGSHLVEA-p-NA. HtrA1 (5 μg) was preincubated with Cytochalasin E (25 μM) for 10 minutes at 37° C. Reaction was initiated by adding p-NA substrate at a final concentration of 0.5 mM. The volume of each reaction was 100 μl in 50 mM Tris-HCl pH 8. Reaction was measured continuously in a spectrophotometer for 70 minutes at 37° C. at 405 nm.

HtrA1 [3] = experiment: HtrA1 RNA level by quantitative RT-PCR after shRNA transduction; format: cell-based, human; details: U373 and SW480 cells expressing the shRNA vs empty vector control
Experimental: (§1) Analysis of HtrA1 and p21 expression in U373 (astrocytoma) and SW480 (colon cancer) cells transduced with an shRNA against HtrA1 or an empty vector control. The HtrA1- and p21-RNA level were analysed by quantitative RT-PCR.
(§2) The cell line SW480 derived from human colon adenocarcinoma (DMSZ no. ACC 313) and the cell line U373 MG derived from human glioblastoma astrocytoma (ECACC no. 89081403) were cultured in DMEM (Gibco, Invitrogen) supplemented with 10% fetal bovine serum (FBS) and 1% penicillin-streptomycin at 5% CO2 and 37° C. The media for the stable transduced SW480 cell lines additionally contain 1.8 μg/ml puromycin.
(§3) 4×10^5 SW480 cells/well were seeded into a six-well plate. After two days the six-well plate was 80% confluent and RNA was extracted by using total RNA isolation kit (Macherey-Nagel). RNA was purified with NucleoSpin RNAII columns (Macherey-Nagel) according to the procedure by the manufacturer. […]
(§4) Quantitative RT-PCR was done with Platinum SYBR Green qPCR-superMix-UDG-kit (Invitrogen) with Rotor-Gene RG3000 from Corbett Research. […]
(§5) The total reaction volume was of 25 μl, containing 12.5 μl SYBR Green PCR Master Mix (Invitrogen), 1 μl Primer (4.5 μM each) and 4 μl cDNA (20 ng). […] Melting curve was measured every 5 seconds from 50° C. to 99° C. Gene expression ratios for each sample were calculated as described (Pfaffl, Nucleic Acids Res, 29:e45 (2001)). […]

p21 = p21 RNA level by quantitative RT-PCR after shRNA against HtrA1; format: cell-based, human
Experimental: as §1, §2, §3, §4, §5

SW480 cells = experiment: Polyploidy of SW480 cells depleted for HtrA1 (FACS, karyotyping); format: cell-based, human
Experimental: A) Polyploidy of SW480 cells depleted for HtrA1/FACS analysis • SW480 (colon cancer) cells were transduced with a shRNA against HtrA1. After some passages cells were analyzed by propidium iodide staining for their DNA content. Gate M1 corresponds to a DNA content of 2n, gate M3 corresponds to a DNA content of 4n and gate M5 corresponds to a DNA content of 8n. […] B) Polyploidy of SW480 cells depleted for HtrA 1/karyo-typing • Metaphase chromosomes of SW480 cell lines transduced with plko empty vector and plko vector containing a shRNA against HtrA1.
Cells were harvested by treatment with trypsin/EDTA. Cells were centrifuged for 5 minutes at 1700 g and 4° C. The pellet was resuspended and washed in 1 ml PBS. Cells were centrifuged again for 5 minutes at 1700 g and 4° C. The supernatant was discarded and the pellet was resuspended in 100 μl PBS. […] After addition of 5 μl RNase A (10 mg/ml) and 15 μl propidium iodide (2 mg/ml, Sigma #P4170), cells were incubated in the dark at 4° C. for 60 minutes and then analysed at the flow cytometer (FACScalibur, BD biosciences) […]
Cell suspensions were dropped onto pre-cleaned, wet, ice-cold glass microscope slides to obtain good spreading of the chromosome sets. […] Intact metaphase cells (those that were not disrupted during the preparation step) were counted for their chromosome numbers at 1000 fold magnification (oil-immersion).

With Nc1ncn([C@H]2C[C@H](O)[C@@H](CO)O2)c(=O)n1 [5-Aza-dC, 5-Aza-2′-deoxycytidine] the HtrA1 expression [1] was “large increase in HtrA1 expression”.

In the case of C=C1[C@@H](C)[C@H]2[C@H](Cc3ccccc3)NC(=O)[C@]23OC(=O)/C=C/[C@H](O)CCC[C@@H](C)C/C=C/[C@H]3[C@@H]1O [Cytochalasin B], the “p21 induction and cell cycle arrest” value (cells; high amounts) is listed as “induce p21 and cell cycle arrest”, the cell cycle arrest (cells; large amounts (10 μg/ml)) is listed as “cell cycle arrest via p21” and the polyploidy (cells; large amounts (10 μg/ml)) is listed as “cause polyploidy”. For the same molecule, the cell cycle arrest (cells; low doses (0.5 μg/ml)) was “no cell cycle arrest”, the polyploidy (cells; low doses (0.5 μg/ml)) was “also cause polyploidy” and the polyploidy (cells; no concentration stated, by inhibition of actin polymerisation) was “causes polyploidy”.

With C[C@H]1C/C=C/[C@H]2[C@@H]3O[C@]3(C)[C@@H](C)[C@H]3[C@H](Cc4ccccc4)NC(=O)[C@]32OC(=O)O/C=C/[C@@](C)(O)C1=O [Cytochalasin E] the HtrA1 activity inhibition (HtrA1 [2]) was “potent HtrA1 inhibitor” and the HtrA1 activity inhibition (HtrA1 [2]; listed as cytochalasin E) was “efficiently inhibits HtrA1”.

For CC(/C=C/C(=O)NO)=C\[C@@H](C)C(=O)c1ccc(N(C)C)cc1 [TSA, Trichostatin A], the HtrA1 expression [1] was “large increase in HtrA1 expression”.

B1: shRNA against HtrA1: hairpin sequence (Seq. ID. No 25/26) in lentiviral plko vector, knocks down HtrA1 (nucleic acid)
sense: CCGGGATCTCAGGAGCGTATATATTCTCGAGAATATATACGCTCCTGAGATCTTTTTG
antisense: CTAGAGTCCTCGCATATATAAGAGCTCTTATATATGCGAGGACTCTAGAAAAACTTAA
In the case of B1, the HtrA1 level downregulated (HtrA1 [3]) is reported as “more than 90%”, the “p21 mRNA levels downregulated by a factor of” value (p21; HtrA1 expressed at much lower levels by shRNA) is reported as 10 and the P21 level down-regulated (p21; both cell lines (U373, SW480) expressing the shRNA against HtrA1) is reported as 90%. The “DNA content by propidium iodide staining (FACS)” value (SW480 cells; SW480 cells vs empty vector) was “shift of the main peak from 2n to 4n and a shift of the smaller peak from 4n to 8n” and the “polyploidy by karyotyping of metaphase chromosomes” value (SW480 cells; SW480 cells vs empty vector control) was “higher grade of polyploidy”.
